Test results as given in PubChem BioAssay (NCI).
Where “and” joins values, the source holds several entries; their conditions need not be identical. Equal entries are not always repeated.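 1) Cells in 96-well plates. 2) Compound, 48 h, 5 concentrations. 3) Linear interpolation between surrounding doses. 4) Unreached endpoint = highest concentration. Here, GI50 denotes the concentration required for 50% inhibition of growth. TGI is the concentration that stops growth completely.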

Tests used:
Assay in all cases: growth of human tumour cells (NCI), 48 h
HT29 colon = system: HT29 colon
UACC-257 melanoma = system: UACC-257 melanoma
ACHN renal = system: ACHN renal
COLO 205 colon = system: COLO 205 colon
IGROV1 ovarian = system: IGROV1 ovarian
CCRF-CEM leukemia = system: CCRF-CEM leukemia
NCI-H23 lung = system: NCI-H23 lung
HCT-116 colon = system: HCT-116 colon
SW-620 colon = system: SW-620 colon
RPMI-8226 leukemia = system: RPMI-8226 leukemia
SK-MEL-28 melanoma = system: SK-MEL-28 melanoma

| SMILES | TGI (HT29 colon) [µM] | TGI (UACC-257 melanoma) [µM] | TGI (ACHN renal) [µM] | TGI (COLO 205 colon) | TGI (IGROV1 ovarian) [µM] | TGI (CCRF-CEM leukemia) [µM] | TGI (NCI-H23 lung) [µM] | TGI (HCT-116 colon) | TGI (SW-620 colon) | TGI (RPMI-8226 leukemia) [µM] | GI50 (HT29 colon) | GI50 (UACC-257 melanoma) [µM] | TGI (SK-MEL-28 melanoma) [µM] | GI50 (IGROV1 ovarian) | GI50 (HCT-116 colon) [µM] |
| --- | --- | --- | --- | --- | --- | --- | --- | --- | --- | --- | --- | --- | --- | --- | --- |
| N#Cc1c(-c2cccc(Br)c2)cc(-c2ccc(Cl)cc2)nc1N | 39.2 | 38.2 | 51.8 | 27.2 µM | 34.3 | 87.5 | 71.7 | 34.8 µM | 36 µM | 45.7 | – | – | – | – | – |
| CC[C@@]1(O)C(=O)OCc2c1cc1n(c2=O)Cc2c-1nc1ccccc1c2C=Nc1ccc(N[C@@H]2c3cc4c(cc3[C@@H](c3cc(OC)c(O)c(OC)c3)[C@H]3C(=O)OC[C@@H]32)OCO4)cc1 | > 100 | – | 0.0374 | > 100 µM and 35.8 µM | – | > 100 | 0.133 | 6.45 µM and 0.653 µM | 55.7 µM and > 100 µM | – | 0.364 µM and 0.104 µM | 0.354 | > 100 | 0.274 µM and 0.132 µM | 0.0251 |
| COc1ccc(-c2c(C#N)c(N)n(C3OCC(O)C(O)C3O)c(=S)c2C#N)cc1 (stereo unspecified) | > 100 | – | > 100 | – | > 100 | > 100 | > 100 | – | > 100 µM | > 100 | – | – | > 100 | – | – |
| C=CCN1C(=O)/C(=C/c2ccccc2)N=C1SC/C=C/C | – | 74.5 | > 100 | > 100 µM | > 100 | > 100 | > 100 | > 100 µM | > 100 µM | 49 | – | – | > 100 | – | – |
| CSC1=C(C)S/C(=C\c2ccc(/C=C3\SC(C)=C(SC)S3)cc2)S1 | > 100 | > 100 | > 100 | > 100 µM | > 100 | > 100 | > 100 | > 100 µM | > 100 µM | – | – | – | > 100 | – | – |
| C=C[C@@]1(C)CC(=O)[C@]2(O)[C@@]3(C)[C@@H](OC(C)=O)CCC(C)(C)[C@@H]3[C@H](O)[C@H](OC(C)=O)[C@@]2(C)O1 | > 100 | > 100 | > 100 | – | > 100 | – | > 100 | > 100 µM | > 100 µM | – | – | – | > 100 | – | – |
| c1ccc2c(c1)Sc1ccccc1N2CCCN1c2ccccc2Sc2ccccc21 | > 100 | > 100 | > 100 | > 100 µM | > 100 | – | > 100 | > 100 µM | > 100 µM | – | – | – | > 100 | – | – |
| C[C@@H]1C(=O)O[C@@H]2C[C@@]1(C)[C@@H]1C(=O)C3(O)OC14C2(C)OC(=O)[C@@]4(O)CCC1C3C(O)C=C2CC=CC(=O)[C@@]21C (stereo partly specified) | 91 | > 100 | > 100 | > 100 µM | > 100 | 40.7 | – | 48.2 µM | > 100 µM | 61.3 | – | – | 54.4 | – | – |
| Cc1ccc(/C(O)=C/c2nc3ccccc3nc2NC23CC4CC(CC(C4)C2)C3)cc1 | > 10 | > 10 | > 10 | > 10 µM | > 10 | – | > 10 | > 10 µM | > 10 µM | > 10 | – | – | > 10 | – | – |
| Cc1ccc(-n2nnc3c(NNc4ccccc4)n[nH]c(=O)c32)cc1 | > 100 | > 100 | > 100 | > 100 µM | – | > 100 | > 100 | > 100 µM | – | > 100 | – | – | > 100 | – | – |
| N#CCN(Cc1ccccc1)[C@H]1CCC[C@]1(O)/C=C/c1ccc2c(c1)OCO2 | 29.8 | 58 | > 100 | 30.5 µM | 92.2 | 53.1 | 69.2 | – | 43.3 µM | 46 | – | – | 34 | – | – |
| N#Cc1cccc(Nc2ccccc2SSc2ccccc2Nc2cccc(C#N)c2)c1 | 15.3 | > 21.5 | > 21.5 | – | 16.9 | 14.9 | > 21.5 | 16.5 µM | 9.19 µM | 11.5 | – | – | > 21.5 | – | – |
| COc1ccccc1/[N+]([O-])=C/c1ccccc1OC(=S)S | > 100 | > 100 | > 100 | 86 µM | 77.2 | – | > 100 | > 100 µM | > 100 µM | 63.7 | – | – | > 100 | – | – |
| CCCC[P+](CCCC)(CCCC)C(C(=O)OC)C(C(=O)OC)=C1SC(C(=O)OC)=C(C(=O)OC)S1 (stereo unspecified) | > 100 | > 100 | > 100 | > 100 µM | > 100 | – | > 100 | > 100 µM | > 100 µM | > 100 | – | – | > 100 | – | – |
| CC1=NN(c2cccc(Cl)c2)C(=N/c2nc3ccccc3s2)/C1=C\c1ccccc1O | 97.8 | 62.2 | 74.3 | – | > 100 | > 100 | 70.1 | 68 µM | > 100 µM | > 100 | – | – | 76.3 | – | – |
| CCOC(=O)/C(=C\NC[C@@H](C)O)c1nc2ccccc2[nH]1 | > 100 | > 100 | 90.4 | > 100 µM | > 100 | – | > 100 | > 100 µM | > 100 µM | 63.3 | – | – | > 100 | – | – |
| CCCCn1c(C)c(C)c2c1NN=C(C#N)S2(=O)=O | > 100 | > 100 | > 100 | > 100 µM | > 100 | – | > 100 | > 100 µM | > 100 µM | > 100 | – | – | > 100 | – | – |
| CC(SC(=S)N1CCCC1)C(=O)Nc1nnc(-c2ccc(Cl)cc2)o1 (stereo unspecified) | 51 | > 100 | > 100 | > 100 µM | > 100 | – | > 100 | 50 µM | > 100 µM | 44.8 | – | – | > 100 | – | – |
| O=c1oc2ccccc2cc1-c1nc2ccccc2c(=O)[nH]1 | > 100 | > 100 | > 100 | > 100 µM | > 100 | > 100 | – | > 100 µM | > 100 µM | > 100 | – | – | > 100 | – | – |
| O=C(/C=C/c1ccsc1)c1cccs1 | > 100 | > 100 | > 100 | 94.2 µM | > 100 | 54.6 | 68 | 31.1 µM | 32.3 µM | – | – | – | 46.1 | – | – |
| COC(=O)C1=C(O)C(C(=O)OC)[C@]2(O)[C@H](C(=O)OC)[C@H]1C[C@@H](c1ccc(Cl)cc1Cl)[C@H]2C(=O)OC (stereo partly specified) | 27.4 | 28.7 | 42.4 | 20.9 µM | 19.3 | – | 19.1 | 18.9 µM | 57 µM | 7.74 | – | – | 53.6 | – | – |
